# Assay results reported in PMC7796031, “Studies of Coumarin Derivatives for Constitutive Androstane Receptor (CAR) Activation” (Molecules, 2020).
# Columns and labels:
# [1] = test system: db/db mice; experiment: In vivo hypoglycemic effect in db/db mice (OGTT, fructosamine, insulin, HOMA-IR); design: species or system mouse
# Protocol: Six-week old male C57/BL6 mice (n = 6) were acquired from the Animal Center of the College of Medicine, National Taiwan University (Taipei, Taiwan) and 6-week-old male db/db mice (BKS.Cg-Dock7m +/+ Leprdb/JNarl) (n = 12) were acquired from the National Laboratory Animal Center (Tainan, Taiwan). Experimental animals were allowed to acclimate to the controlled photoperiod (a cycle of 12-h light/12-h dark), humidity (40–60% relative humidity) and temperature (22 ± 2 °C) with ad libitum supply of standard chow diets and drinking water for one week prior to the experimental treatment in accordance with the Guide for the Care and Use of Laboratory Animals (Institute of Laboratory Animal Resources Commission on Life Sciences, 2011). Acclimated animals were randomly separated into three cohorts: control group (C57/BL6 mice treated with vehicle for two weeks, n = 6), db/db group (db/db mice treated with vehicle for two weeks, n = 6), and db/db+SP group (db/db mice treated with 100 mg/kg scoparone for two weeks, n = 6). (IACUC Approval NO.: 20140532; Duration: 2015.01.01–2015.12.31; Ethical Committee: National Taiwan University College of Medicine and College of Public Health Institutional Animal Care and Use Committee (IACUC).)
# The control mice or diabetic mice with or without drugs treatment for 2 weeks received an oral glucose challenge (2 g/kg). Mice were under slight anesthesia by an intraperitoneal injection of pentobarbital (50 mg/kg) and blood samples (20–50 μL via orbital sinus at each time point) were collected following: 0, 15, 30, 60, 90, and 120 min after delivery of the glucose load. Blood glucose levels were determined using SURESTEP blood glucose meter (Lifescan). Glucose tolerance was determined and performed as the curve (AUC) and delta AUC (ΔAUC) using Prism 5 software (GraphPad).
# To determine the amount of insulin and fructosamine after fasting overnight, blood samples (0.5–0.8 mL) of euthanasia animals were collected. After centrifugation, the serum was analyzed by insulin and fructosamine immunoassay kits according to the respective instructions of the manufacturer (Mercodia AB Inc., Uppsala, Sweden; Hospitex Diagnostics Lp, League City, TX, USA). The homeostasis model assessment of insulin resistance (HOMA-IR) index is calculated with the formula of the values of fasting glucose and insulin divided by 22.5 as previously described.
# [2] = test system: phosphoenopyruvate carboxykinse (PEPCK) mRNA expression; experiment: PEPCK mRNA expression induced by dexamethasone and 8-bromo-cAMP in H4IIE cells; format: cell-based, rat; conditions: dexamethasone (500 nM) + 8-bromo-cAMP, test compounds as printed
# Protocol: S21 Effects of scoparone, 50 (PLH), and 6 on phosphoenopyruvate carboxykinse (PEPCK) mRNA expression induced by dexamethasone and 8-bromo-cAMP.
# A quantified result of dexamethasone (500 nM) and 8-bromo-cAMP (100µM) induced PEPCK mRNA expression in the presence or absence of scoparone, 50 (PLH) and 6 at 0.78 µM was shown. Insulin (10 nM) was served as an experimental control. Quantified data was presented as mean ± S.E.M. (n = 4). **P < 0.01 and ***P < 0.001 when compared with induction control (None).
# PEPCK mRNA could be induced by dexamethasone and 8-bromo-cAMP after 3hr. The presence of insulin […]
# Scoparone, at 0.78 µM, can suppress PEPCK
# In contrast, both 50 (PLH) and 6 could also suppress PEPCK
# Cell culture: The rat H4IIE cells were cultured in Dulbecco’s Modified Eagle’sMedium (DMEM) containing 1 g/L glucose, 5% (v/v) fetal calf serum (FBS) and 1% (v/v) antibiotics (100 U/mL penicillin and 0.1 g/L streptomycin). Cultured cells were maintained at 37 ◦C in an atmosphere of 5% CO2 and 95% air.
# The measurement of PEPCK gene expression: H4IIE cells were seeded into 6 cm dish and allowed for the attachment. After serum starvation overnight, cells were treated with various conditions described in the figure legend. After treatment, total RNA of each treatment was extracted using TRI-reagent according to the manufacturer’s instructions. The pelleted RNA was dissolved in distilled water, quantified with NanoDrop™ 1000 Spectrophotometer (Thermo Fisher Scientific, USA) and stored at −70 ◦C. Total RNA (1µg) was reverse transcribed to generate templates. 50 ng of cDNA was employed for further PCR. The sequences of […]
# primers for β-actin: 5’-[…]- 3’ and 5’-[…]-3’ and […]
# (1 picture or pasted object on this page, not shown here)
# [3] = test system: UGT1A1; experiment: Protein expression of UGT1A1 (western blot); format: cell-based, human
# Protocol: 1 × 10^6 cells were seeded in a 10 cm plate, incubated at 37 °C for overnight and treated with various concentrations of compounds for the indicated times. After incubation, the culture medium was removed and washed twice with 2 mL ice-cold 1× PBS. Three hundred μL of protein lysis buffer (150 mM NaCl, 50 mM Tris-HCl (pH 7.4), 1% SDS, 1% Triton X-100, 1 mM PMSF) was added into each plate, scraped with a rubber policeman, collected into a premarked microtube and the incubated in ice for 1 h, sonicated by Ultrasonic Cell Disruptor for three time at 5 s each. The cell lysated was cleared by centrifugation at 12,000× g for 15 min at 4 °C. Supernatants were transferred into a fresh marked microtube and stored at −20 °C for future use.
# Protein concentration of each sample was determined using a BCA Protein Assay Kit (Pirece®, Thermo Scientific). Different percentages of SDS-PAGE gels were prepared according to the molecular size of proteins of interest. After complete polymerization of stacking gels, each sample with equal amount of total protein was separated in polyacrylamide gels (stacking gel: 50 v, 60 min; separating gel: 100 v, 60 min). After separating, wet-transfer method was utilized to transfer proteins onto the PVDF membrane. The gels were assembled in the transfer sandwich and put in a transfer tank filled with transfer buffer (25 mM glycine, 0.15% ethanolamine, 20% methanol). The electro-transfer was performed at the voltage of 100 volt for 80 min at 4 °C. After transfer, PVDF-membrane was blocked with 5% BSA in 1× TBS-Tween at room temperature for 1 h. Membrane was washed with 10 mL 1× TBS-Tween three times and incubated with primary antibodies overnight at 4 °C with gentle agitation. After primary antibody was removed, the membrane was washed three times with 10 mL 1× TBS-Tween for 10 min at room temperature with constant shaking. […] The emitted fluorescence from the membrane was caught on a LAS-4000 biomolecule imager (FUJI.).
# [4] = db/db mice, 100 mg/kg P.O., two weeks
SMILES,"HOMA-IR [1, 4]","insulin level [1, 4]","level of fructosamine [1, 4]","oral glucose tolerance test (OGTT) [1, 4]",suppression of PEPCK mRNA induction [2],"protein expression of UGT1A (CAR downstream gene) ([3]; Figure 2, after scoparone or CITCO treatment)",in vivo efficacy (blood sugar lowering) ([1]; even by intraperitoneal injection),UGT1A1 protein level ([3]; Hep3B)
"COc1cc2ccc(=O)oc2cc1OC [Compound 39, scoparone]",did not change,did not change,decreased,significant improvement,level similar to insulin,upregulated,–,–
"CC(C)=CCOc1cc2ccc(=O)oc2cc1OCC=C(C)C [Compound 50, 6,7-diprenoxycoumarin]",–,–,–,–,less potent,–,didn’t show any in vivo efficacy,not significantly increased
